Experimental findings from ChEMBL document CHEMBL1201862, “PubChem BioAssay data set” (2004) are described below.

SMILES strings stand for the structures. The source made the active and inactive calls.

A short description of assay [1]: A cytotoxicity screen of small molecule inhibitors of the PhoP region in Salmonella typhi identified in the primary screen. [Related pubchem assays: 1850, 1864, 1985 ]. In kind it is functional.
Assay [2] is described as follows: inhibitors of intracellular T. cruzi replication, confirmation, NIH3T3 host cells, beta-gal luminescence (AID 2044).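 Note: intracellular parasites grown in NIH/3T3 mouse fibroblasts as host cells; luminescent beta-galactosidase reporter signal from transgenic T. cruzi replicating inside host cells; inhibitors lower the luminescence signal.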 The format is functional, cell-based.
The nature of assay [3]: cytotoxicity toward NIH3T3 fibroblasts, dose response, counter-screen, cell-based, ATP luminescence, mouse fibroblasts (AID 2010).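 Note: cells exposed to compound for about 90 hours before reading.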 In kind it is functional. On the technique in general: Counterscreens check selectivity or assay interference.
The target of assay [4] is T1, Lytic switch protein BZLF1 (Epstein-Barr virus (strain B95-8) (HHV-4) (Human herpesvirus 4), UniProt P03206).
T1 sequence (P03206 whole entry): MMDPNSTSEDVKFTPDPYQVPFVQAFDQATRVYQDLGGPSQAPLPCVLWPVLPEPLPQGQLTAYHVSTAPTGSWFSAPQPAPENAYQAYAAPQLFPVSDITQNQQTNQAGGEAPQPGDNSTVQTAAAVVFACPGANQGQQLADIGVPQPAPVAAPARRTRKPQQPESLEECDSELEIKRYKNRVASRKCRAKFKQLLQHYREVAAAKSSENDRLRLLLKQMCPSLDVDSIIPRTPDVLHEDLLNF
As to the kind of experiment: EBV ZTA inhibitors, dose response, counter-screen for EBNA-1 inhibitor project, biochemical, fluorescence polarization, Epstein-Barr virus, 1536-well (AID 2377).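 Note: fluorescence polarization of Cy5-labelled ZRE DNA probe bound by purified Zta.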 Also noted: species or system human gammaherpesvirus 4.

Assay [5] deals with T2, Epstein-Barr nuclear antigen 1 (Epstein-Barr virus (strain B95-8) (HHV-4) (Human herpesvirus 4), UniProt P03211).
T2 sequence (P03211 whole entry): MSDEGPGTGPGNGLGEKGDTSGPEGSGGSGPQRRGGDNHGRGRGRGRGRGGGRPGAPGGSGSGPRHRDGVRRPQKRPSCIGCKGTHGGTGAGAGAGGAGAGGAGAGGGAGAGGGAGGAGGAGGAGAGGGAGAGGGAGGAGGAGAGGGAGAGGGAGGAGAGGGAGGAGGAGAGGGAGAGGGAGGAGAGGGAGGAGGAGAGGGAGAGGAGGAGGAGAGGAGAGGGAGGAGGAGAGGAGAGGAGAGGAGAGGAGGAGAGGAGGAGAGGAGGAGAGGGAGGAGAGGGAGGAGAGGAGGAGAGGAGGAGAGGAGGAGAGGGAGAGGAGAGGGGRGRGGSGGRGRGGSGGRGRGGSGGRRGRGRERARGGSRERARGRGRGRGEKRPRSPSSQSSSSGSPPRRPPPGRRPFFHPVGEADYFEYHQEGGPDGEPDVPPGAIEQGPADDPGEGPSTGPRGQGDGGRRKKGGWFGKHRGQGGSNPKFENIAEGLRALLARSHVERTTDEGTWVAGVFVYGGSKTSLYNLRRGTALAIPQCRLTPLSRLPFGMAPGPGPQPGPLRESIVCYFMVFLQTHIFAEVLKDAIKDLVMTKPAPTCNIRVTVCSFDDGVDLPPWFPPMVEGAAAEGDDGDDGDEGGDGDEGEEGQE
As to the kind of experiment: EBNA-1 inhibitors, dose response, biochemical, fluorescence polarization, 1536-well (AID 2381).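 Note: fluorescence polarization of a Cy5 DNA probe bound by EBNA-1 protein.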 On the set-up: species or system human gammaherpesvirus 4.

For assay [6], the target named is G-protein coupled receptor 55 (Homo sapiens, UniProt Q9Y2T6). In words: GPR55 agonists via beta-arrestin recruitment, primary screen, imaging, U2OS cells, beta-arrestin-GFP redistribution (AID 1961). The format is functional. For orientation: Recruitment of arrestin is a read-out of receptor activation apart from second messengers.
Assay [7] addresses T3, Acyl-homoserine lactone acylase PvdQ (Pseudomonas aeruginosa (strain LESB58), UniProt Q9I194).
T3 sequence (Q9I194 whole entry): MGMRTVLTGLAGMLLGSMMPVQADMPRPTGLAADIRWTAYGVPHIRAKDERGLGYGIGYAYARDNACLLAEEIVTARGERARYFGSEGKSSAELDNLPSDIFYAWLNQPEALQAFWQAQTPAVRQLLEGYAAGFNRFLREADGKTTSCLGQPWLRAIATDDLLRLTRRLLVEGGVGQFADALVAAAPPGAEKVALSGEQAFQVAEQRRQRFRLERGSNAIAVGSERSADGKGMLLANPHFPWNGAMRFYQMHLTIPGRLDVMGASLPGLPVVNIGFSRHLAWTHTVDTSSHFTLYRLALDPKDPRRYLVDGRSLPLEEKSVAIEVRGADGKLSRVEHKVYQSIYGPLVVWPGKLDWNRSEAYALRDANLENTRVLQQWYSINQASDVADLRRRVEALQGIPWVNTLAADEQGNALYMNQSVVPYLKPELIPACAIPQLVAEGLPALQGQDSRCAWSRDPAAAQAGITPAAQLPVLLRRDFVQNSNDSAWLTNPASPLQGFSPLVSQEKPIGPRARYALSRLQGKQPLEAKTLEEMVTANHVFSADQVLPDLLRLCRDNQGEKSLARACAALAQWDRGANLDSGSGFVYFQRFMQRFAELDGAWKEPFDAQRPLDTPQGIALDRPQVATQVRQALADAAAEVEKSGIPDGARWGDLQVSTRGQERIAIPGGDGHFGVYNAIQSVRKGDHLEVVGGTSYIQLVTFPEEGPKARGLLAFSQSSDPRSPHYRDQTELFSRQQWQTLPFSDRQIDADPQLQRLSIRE
In words: P. aeruginosa PvdQ acylase inhibitors, dose response, biochemical, fluorescence, plate reader and imaging, cherry-picks (AID 493231).

Assay [8] concerns the target 72 kDa type IV collagenase (Homo sapiens, UniProt P08253). In words: Dose Response validation of uHTS RPN11 inhibitor hits using a MMP-2 Fluorescence assay. The format is functional.
Assay [9] in a line: enhancers of respiration in Yfh1-depleted yeast, dose response, Friedreich's ataxia, plus single-dose screen (AID 1465).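 Note: yeast depleted of Yfh1p frataxin homolog grown on glycerol needing respiration; WST-1 tetrazolium dye reduction as measure of cellular dehydrogenase metabolic activity.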 The format is functional.
Assay [10] has as its target 26S proteasome non-ATPase regulatory subunit 14 (Homo sapiens, UniProt O00487). As to the kind of experiment: inhibition of proteasome subunit RPN11 – biochemical, fluorescence polarization, uHTS hits, confirmation (AID 602368). In kind it is functional. For orientation: Fluorescence polarisation rises when a labelled molecule tumbles more slowly, as on binding a larger partner.

For the next assay, the target named is Prothrombin (Bos taurus, UniProt P00735). In words: thrombin inhibition, dose response, biochemical, fluorescence polarization, uHTS hits (AID 602369). The format is functional.
The target of assay [11] is G-protein coupled receptor 35 (Homo sapiens, UniProt Q9HC97). As to the kind of experiment: GPR35 antagonists blocking zaprinast-driven arrestin recruitment, primary screen, imaging, U2OS, beta-arrestin-GFP, zaprinast agonist (AID 2058).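 Note: antagonist potency meaning inhibition of agonist-induced arrestin redistribution.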 The format is functional.
Assay [12] concerns the target T4, Endoribonuclease toxin MazF (Escherichia coli K-12, UniProt P0AE70).
T4 sequence (P0AE70 whole entry): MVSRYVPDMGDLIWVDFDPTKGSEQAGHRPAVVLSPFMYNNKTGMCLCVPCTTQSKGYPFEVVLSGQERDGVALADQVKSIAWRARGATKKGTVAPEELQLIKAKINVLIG
In words: MazF toxin RNase activators, dose response, biochemical, fluorescence, single-stranded RNA substrate, uHTS hits (AID 588481). The format is functional.

In assay [13] the test system is BJ. In words: cytotoxicity toward BJ-TERT fibroblasts, dose response, cell-based, RAS-independent, luminescence (AID 1933). The format is functional. The note with it: Homo sapiens.
Assay [14] relates to BJ. As to the kind of experiment: cytotoxicity toward BJ-TERT-LT-ST fibroblasts, dose response, cell-based, RAS-independent, luminescence (AID 1935).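 Note: BJ fibroblasts immortalized with TERT plus LT and ST oncogenes.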 In kind it is functional. To be noted: Homo sapiens.
Assay [15] can be described thus: cytotoxicity toward DRD oncogenic fibroblasts, dose response, cell-based, non-viral oncogenic, luminescence (AID 1934). The format is functional. To be noted: Homo sapiens.
The subject of assay [16] is BJ. In words: cells. The format is functional, cell-based. The note with it: Homo sapiens.
In assay [17] the target is T4, Endoribonuclease toxin MazF. As to the kind of experiment: fluorescent RNA oligo signal without MazF, dose response, counter-screen for MazEF activator project, biochemical, fluorescence, single-stranded RNase substrate (AID 588502). In kind it is functional.
The target in assay [18] is Eukaryotic translation initiation factor 4E (Mus musculus, UniProt P63073). As to the kind of experiment: eIF4E–eIF4G protein interaction inhibitors, dose response, biochemical, TR-FRET (AID 855).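 Note: potency for disrupting eIF4E binding to eIF4GI seen as loss of FRET.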 In kind it is functional.
In assay [19] the target is Peroxisome proliferator-activated receptor gamma/Nuclear receptor corepressor 2 (Homo sapiens, UniProt P37231+Q9Y618). As to the kind of experiment: Counterscreen for NR2E3 inverse agonists: TR-FRET-based biochemical high throughput dose response assay to identify inverse agonists of the interaction between peroxisome proliferator-activated receptor gamma (PPARg) and nuclear receptor co-repressor 2 (NCOR2). In kind it is functional.

Assay [20] addresses Photoreceptor-specific nuclear receptor (Homo sapiens, UniProt Q9Y5X4). As to the kind of experiment: NR2E3 inverse agonists, dose response, biochemical, TR-FRET (AID 463256). The format is functional.

Sequence of 72 kDa type IV collagenase (P08253 whole entry): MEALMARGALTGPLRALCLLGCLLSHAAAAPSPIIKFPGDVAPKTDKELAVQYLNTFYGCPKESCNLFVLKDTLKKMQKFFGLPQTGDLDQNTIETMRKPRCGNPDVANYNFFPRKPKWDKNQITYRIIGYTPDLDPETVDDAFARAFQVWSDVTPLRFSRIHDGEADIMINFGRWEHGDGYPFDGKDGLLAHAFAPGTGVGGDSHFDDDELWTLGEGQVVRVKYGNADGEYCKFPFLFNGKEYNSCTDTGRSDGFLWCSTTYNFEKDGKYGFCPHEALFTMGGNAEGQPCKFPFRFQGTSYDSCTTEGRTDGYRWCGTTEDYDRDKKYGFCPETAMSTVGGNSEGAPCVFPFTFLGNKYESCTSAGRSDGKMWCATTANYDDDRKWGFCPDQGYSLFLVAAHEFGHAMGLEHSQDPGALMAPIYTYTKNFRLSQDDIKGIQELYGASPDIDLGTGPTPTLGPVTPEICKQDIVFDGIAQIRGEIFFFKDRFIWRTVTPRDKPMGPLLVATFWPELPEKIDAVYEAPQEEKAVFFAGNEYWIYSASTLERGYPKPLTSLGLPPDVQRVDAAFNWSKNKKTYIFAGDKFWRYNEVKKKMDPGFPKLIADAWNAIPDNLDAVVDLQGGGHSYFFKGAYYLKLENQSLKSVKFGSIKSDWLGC
Sequence of 26S proteasome non-ATPase regulatory subunit 14 (O00487 whole entry): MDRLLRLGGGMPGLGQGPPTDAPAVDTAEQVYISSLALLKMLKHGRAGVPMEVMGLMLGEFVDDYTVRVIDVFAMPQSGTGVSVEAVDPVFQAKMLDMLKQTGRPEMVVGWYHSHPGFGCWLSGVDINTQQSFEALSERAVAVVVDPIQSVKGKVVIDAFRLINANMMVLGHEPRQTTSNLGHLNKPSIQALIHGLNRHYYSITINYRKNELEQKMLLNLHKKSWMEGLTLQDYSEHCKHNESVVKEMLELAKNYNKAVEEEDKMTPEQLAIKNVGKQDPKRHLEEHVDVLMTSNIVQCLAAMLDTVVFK
Sequence of G-protein coupled receptor 55 (Q9Y2T6 whole entry): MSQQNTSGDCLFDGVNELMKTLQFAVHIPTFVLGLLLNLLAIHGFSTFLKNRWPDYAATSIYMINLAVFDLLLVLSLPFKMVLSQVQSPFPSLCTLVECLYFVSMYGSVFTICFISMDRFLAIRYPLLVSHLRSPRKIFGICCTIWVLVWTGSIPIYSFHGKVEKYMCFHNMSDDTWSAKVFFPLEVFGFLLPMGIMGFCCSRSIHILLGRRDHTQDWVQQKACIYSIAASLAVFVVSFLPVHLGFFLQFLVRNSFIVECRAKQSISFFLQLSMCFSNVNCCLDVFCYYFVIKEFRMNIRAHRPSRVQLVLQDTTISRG
Sequence of Peroxisome proliferator-activated receptor gamma/Nuclear receptor corepressor 2 (P37231 whole entry): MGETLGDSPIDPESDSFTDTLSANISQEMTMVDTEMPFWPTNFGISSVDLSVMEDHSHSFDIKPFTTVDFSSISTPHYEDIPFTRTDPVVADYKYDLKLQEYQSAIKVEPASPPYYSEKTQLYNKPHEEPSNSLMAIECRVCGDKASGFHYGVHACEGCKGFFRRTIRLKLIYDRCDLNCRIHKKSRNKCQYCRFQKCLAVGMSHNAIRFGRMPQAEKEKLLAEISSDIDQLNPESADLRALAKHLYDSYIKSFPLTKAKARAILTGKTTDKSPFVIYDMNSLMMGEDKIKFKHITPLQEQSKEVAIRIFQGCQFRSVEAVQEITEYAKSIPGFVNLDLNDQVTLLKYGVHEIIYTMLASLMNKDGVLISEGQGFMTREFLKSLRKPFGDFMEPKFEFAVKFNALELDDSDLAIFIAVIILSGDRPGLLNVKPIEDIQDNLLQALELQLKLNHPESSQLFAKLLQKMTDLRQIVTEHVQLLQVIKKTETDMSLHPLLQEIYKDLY
Sequence of Peroxisome proliferator-activated receptor gamma/Nuclear receptor corepressor 2 (Q9Y618 whole entry): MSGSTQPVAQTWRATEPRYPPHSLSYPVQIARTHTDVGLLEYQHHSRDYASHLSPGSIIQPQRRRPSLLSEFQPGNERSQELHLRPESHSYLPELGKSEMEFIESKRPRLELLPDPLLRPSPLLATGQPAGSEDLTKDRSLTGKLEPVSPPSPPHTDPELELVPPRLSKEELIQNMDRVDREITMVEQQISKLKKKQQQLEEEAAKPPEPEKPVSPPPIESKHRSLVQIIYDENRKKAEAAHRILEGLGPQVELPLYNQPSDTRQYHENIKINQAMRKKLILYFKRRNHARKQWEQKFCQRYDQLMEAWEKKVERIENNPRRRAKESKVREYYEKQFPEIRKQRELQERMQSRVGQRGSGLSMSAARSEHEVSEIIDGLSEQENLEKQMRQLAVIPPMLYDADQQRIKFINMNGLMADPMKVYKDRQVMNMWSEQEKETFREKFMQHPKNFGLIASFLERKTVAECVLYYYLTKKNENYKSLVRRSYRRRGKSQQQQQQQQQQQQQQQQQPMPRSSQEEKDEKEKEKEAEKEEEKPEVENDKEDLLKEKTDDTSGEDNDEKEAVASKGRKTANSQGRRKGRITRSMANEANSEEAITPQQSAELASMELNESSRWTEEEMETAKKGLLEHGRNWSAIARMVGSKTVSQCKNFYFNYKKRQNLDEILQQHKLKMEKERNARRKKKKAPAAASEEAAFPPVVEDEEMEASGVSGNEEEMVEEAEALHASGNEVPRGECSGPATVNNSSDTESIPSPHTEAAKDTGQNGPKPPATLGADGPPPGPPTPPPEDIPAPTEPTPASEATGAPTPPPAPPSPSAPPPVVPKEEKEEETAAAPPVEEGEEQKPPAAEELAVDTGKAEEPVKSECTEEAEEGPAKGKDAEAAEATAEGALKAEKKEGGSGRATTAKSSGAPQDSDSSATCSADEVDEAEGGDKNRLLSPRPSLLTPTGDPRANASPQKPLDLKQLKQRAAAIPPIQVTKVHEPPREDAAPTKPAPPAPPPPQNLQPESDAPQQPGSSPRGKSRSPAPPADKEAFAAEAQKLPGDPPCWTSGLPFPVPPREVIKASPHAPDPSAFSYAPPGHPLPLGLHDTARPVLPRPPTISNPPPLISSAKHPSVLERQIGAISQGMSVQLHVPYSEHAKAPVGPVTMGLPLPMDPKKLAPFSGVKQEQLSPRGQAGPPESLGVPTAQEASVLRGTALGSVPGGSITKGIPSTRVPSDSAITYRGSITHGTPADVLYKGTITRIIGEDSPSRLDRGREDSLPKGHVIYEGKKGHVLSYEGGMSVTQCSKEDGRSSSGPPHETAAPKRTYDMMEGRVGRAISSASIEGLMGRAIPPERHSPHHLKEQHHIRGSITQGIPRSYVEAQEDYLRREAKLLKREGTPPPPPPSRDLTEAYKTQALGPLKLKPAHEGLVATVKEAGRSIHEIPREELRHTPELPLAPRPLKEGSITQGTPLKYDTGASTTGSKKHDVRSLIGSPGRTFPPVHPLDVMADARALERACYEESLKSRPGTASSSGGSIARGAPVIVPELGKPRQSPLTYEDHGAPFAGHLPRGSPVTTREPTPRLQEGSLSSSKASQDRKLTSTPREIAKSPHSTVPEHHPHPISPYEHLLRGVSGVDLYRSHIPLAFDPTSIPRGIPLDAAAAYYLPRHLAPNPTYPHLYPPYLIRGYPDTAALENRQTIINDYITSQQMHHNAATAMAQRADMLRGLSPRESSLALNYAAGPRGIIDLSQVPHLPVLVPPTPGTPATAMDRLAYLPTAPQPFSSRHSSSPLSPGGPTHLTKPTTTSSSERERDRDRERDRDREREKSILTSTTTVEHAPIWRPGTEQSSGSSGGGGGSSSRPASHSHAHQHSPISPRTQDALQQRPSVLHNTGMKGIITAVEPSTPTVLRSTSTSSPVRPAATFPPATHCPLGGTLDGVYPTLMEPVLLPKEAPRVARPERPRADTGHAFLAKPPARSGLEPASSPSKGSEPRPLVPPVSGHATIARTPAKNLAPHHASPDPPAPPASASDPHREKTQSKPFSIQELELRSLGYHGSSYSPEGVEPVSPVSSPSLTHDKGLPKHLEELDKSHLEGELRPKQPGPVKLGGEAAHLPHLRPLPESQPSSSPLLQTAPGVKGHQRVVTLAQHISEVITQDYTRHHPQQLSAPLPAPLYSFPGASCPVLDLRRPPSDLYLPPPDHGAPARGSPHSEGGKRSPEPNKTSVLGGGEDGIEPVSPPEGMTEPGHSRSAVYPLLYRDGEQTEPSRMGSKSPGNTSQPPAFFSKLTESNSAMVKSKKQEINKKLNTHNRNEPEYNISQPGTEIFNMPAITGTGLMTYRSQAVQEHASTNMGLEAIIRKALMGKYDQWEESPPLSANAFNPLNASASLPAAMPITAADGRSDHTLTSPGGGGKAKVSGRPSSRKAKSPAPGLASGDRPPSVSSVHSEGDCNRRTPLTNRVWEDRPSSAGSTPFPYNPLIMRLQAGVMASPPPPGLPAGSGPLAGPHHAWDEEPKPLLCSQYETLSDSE
Sequence of Photoreceptor-specific nuclear receptor (Q9Y5X4 whole entry): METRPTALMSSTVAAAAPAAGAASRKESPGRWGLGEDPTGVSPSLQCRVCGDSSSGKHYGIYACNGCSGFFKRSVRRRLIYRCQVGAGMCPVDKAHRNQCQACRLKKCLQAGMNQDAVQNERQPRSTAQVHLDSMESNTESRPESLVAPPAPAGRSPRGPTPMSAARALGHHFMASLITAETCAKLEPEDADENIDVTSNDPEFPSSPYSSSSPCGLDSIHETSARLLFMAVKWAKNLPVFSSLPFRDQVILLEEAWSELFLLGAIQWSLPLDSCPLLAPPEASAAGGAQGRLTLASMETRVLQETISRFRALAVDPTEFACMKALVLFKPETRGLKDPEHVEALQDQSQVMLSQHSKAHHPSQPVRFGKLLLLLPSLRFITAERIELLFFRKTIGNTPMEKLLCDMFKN
Sequence of Eukaryotic translation initiation factor 4E (P63073 whole entry): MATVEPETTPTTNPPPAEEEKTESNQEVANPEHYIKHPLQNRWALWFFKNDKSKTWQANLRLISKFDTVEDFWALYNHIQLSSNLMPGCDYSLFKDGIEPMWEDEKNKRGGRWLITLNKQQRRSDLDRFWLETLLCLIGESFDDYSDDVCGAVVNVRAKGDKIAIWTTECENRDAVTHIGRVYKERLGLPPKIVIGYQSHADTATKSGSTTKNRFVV

A word on the EC50: it is the concentration that produces a half-maximal response. As for `CN1CCc2nc(SCC(=O)Nc3cccc(F)c3)c(C#N)c(-c3cccs3)c2C1`, the 50% effective concentration (EC50) is > 50 µM (active) in [1], < 0.004 µM (active) in “cells”, < 0.1 µM (active) in [2] and > 60 µM (not active) in [3].

As usually defined, the IC50 is the concentration that inhibits the measured activity by half. For `N#Cc1c2ncn(CC(=O)c3ccc(Br)cc3)c(=O)c2c2n1CCC2`, the results for the 50% inhibitory concentration (IC50) in [4] and in assay [5] were > 111 µM (not active) and 13.1 µM (not active), respectively.

Consider `COc1ccc(CC(=O)NCC2CCCN(Cc3ccc(SC)cc3)C2)cc1` (centres undefined), for which the 50% effective concentration (EC50) in “cells” was 0.034 µM (active); in assay [2] it was < 0.1 µM (active); in assay [3], > 60 µM (not active).

As to `CCCN(CCC)Cc1c(C(=O)N/N=C/C(C)=C\c2ccccc2)nnn1-c1nonc1N`, the EC50 in [6] is 0.525 µM (active).

What is called AC50 is the midpoint of the concentration-response curve, whichever way the signal moves. In the case of `O=C1C=C(c2cccc(Cl)c2)C[C@@H](c2ccc(F)cc2)C1`, the half-maximal activity concentration (AC50) in assay [7] was 9.81 µM (active).

As for `O=[N+]([O-])c1ccc(N2CCCCC2)s1`, the IC50 in assay [8] was > 100 µM (inactive); in assay [10] it was 36.1 µM (active); on Prothrombin, 68 µM (active). Also, the EC50 in assay [9] was > 100 µM (active).

For `COCCN1C(=O)/C(=C/c2ccc(N3CCCC3)cc2)SC1=S`, the concentration for half-maximal inhibition (IC50) in assay [11] is < 0.5 µM (active). The EC50 is > 99 µM (inactive) in assay [12]; 20.9 µM (inconclusive) in the assay with BJ [13]; > 150 µM (not active) in the assay on BJ [14]; 49.7 µM (active) in [15]; > 150 µM (not active) in the assay on BJ [16]; > 99 µM (inactive) in assay [17].

Take `C=CCn1c(SCC(=O)Nc2ccc(-c3nc4ccc(C)cc4s3)cc2)nnc1-c1ccccc1`: the IC50 in assay [18] was > 64 µM (inactive); in [8], > 100 µM (inactive); in assay [10], 23.7 µM (active); at Prothrombin, 51.4 µM (active); in assay [19], 0.737 µM (active); in assay [20], 0.774 µM (active).

In the case of `CCOC(=O)c1ccc(N2Cc3ccccc3C2=N)cc1`, in assay [7], the half-maximal activity concentration (AC50) is 3.83 µM (active).
